{
  "source": "patent EP1285971B1",
  "about": "“Methods for the phenotypic and genotypic assessment of the drug sensitivity of HIV integrase variants” (Tibotec Pharmaceuticals Ltd., priority 2001, dated 2003)",
  "key": {"NL 4-3": {"tested_on": "NL 4-3", "assay": "microbe, parasite or virus in culture", "assay_type": "cell-based, HIV-1", "conditions": "for fold change: fold change in EC50", "experimental": "(§1) The integrase encoding sequence was amplified from either wildtype HIV-1 (IIIB) or NL4.3 virus, or HXB2D site-directed mutant viruses containing mutations in integrase (such as T66I, S153Y, M154I, or combinations thereof) (Hazuda et al., Science 2000, 287, 646-650), or patient samples. Starting from RNA, extracted from virus supernatant or plasma using the QIAamp® viral RNA extraction kit (Qiagen), cDNA was synthesized by reverse transcription (Expand TM reverse transcriptase, 30 min at 42°C) with the primer 3'EGINT10 (SEQ ID NO 11), followed by a nested PCR. The outer PCR was performed with the primers 5'EGINT1 (SEQ ID NO 1) and 3'EGINT10 (SEQ ID NO 11) (ΔR-IN-vif construct) or 5'EGINT3 (SEQ ID NO 4) and 3'EGINT10 (SEQ ID NO 11) (ΔIN construct) (Expand™ High Fidelity PCR system), and 5 µl of the outer product was used for an inner PCR with primers 5'EGINT2 (SEQ ID NO 3) and 3'EGINT11 (SEQ ID NO 12) (ΔR-IN-vif construct) or 5'EGINT4 (SEQ ID NO 5) and 3'EGINT6 (SEQ ID NO 7) (ΔIN construct). In a second protocol the outer primers were identical as described above, the inner primers are 5'EGINT5 (SEQ ID NO 6) and 3'EGINT6 (SEQ ID NO 7). The amplicons can be used for genotyping and phenotyping. Cycling conditions for both PCRs are denaturation for 3 min at 95°C, followed by 30 cycles of 1 min 90°C, 30 sec 55°C, and 2 min 72°C. A final extension was performed at 72°C for 10 min. For recombination, PCR products are purified using the QiaQuick® 96 PCR BioRobot kit (Qiagen), according to the manufacturer's protocol. If the protocol starts from DNA containing the HIV material such as proviral DNA, the reverse transcriptase step is not needed. The nested approach is also not needed when starting from proviral DNA. The obtained amplicons were sequenced using the primers: In_seq1F (SEQ ID NO 17), In_seq2F (SEQ ID NO 18), In_seq3F (SEQ ID NO 19), IN_seq1R (SEQ ID NO 20), IN_seq2R (SEQ ID NO 21), and IN_seq3R (SEQ ID NO 22).\n(§2) A ΔR-IN-vif or ΔIN deletion construct was generated by site-directed mutagenesis on the template pSV40HXB2D with the primers MUT-IN1 (SEQ ID NO 13) and MUT-IN2 (ΔR-IN-vif construct) (SEQ ID NO 14) or MUT-IN3 (SEQ ID NO 15) and MUT-IN4 (SEQ ID NO 16) (ΔIN construct) (protocol Site-directed mutagenesis kit, Stratagene). After DpnI digestion for removal of the methylated template DNA, the construct was digested with SmaI and ligated to circulize the plasmid. The plasmid was transformed into competent cells such as Top10 cells, and colonies were screened for the presence of the deletion construct. The IN-deletion construct was checked by sequence analysis with primers 5'EGINT1 (SEQ ID NO 1) or […] and 3'EGINT10 (SEQ ID NO 11) or 3'EGINT11 (SEQ ID NO 12). For use in recombination experiments, large-scale plasmid DNA preparations were linearized by SmaI digestion and recombined with PCR amplified integrase genes from wild type, mutant, or patient viruses. The plasmid containing the integrase deletion (ΔIN) has been deposited pSV40HXB2D-ΔIN. The sequence of said plasmid is 14377 nucleotides long. The ΔR-IN-vif deletion construct is 13975 nucleotides long. The pSV40HXB2D-ΔIN was deposited at the Belgian Coordinated Collections of Micro-Organisms located at the Universiteit Gent - Laboratorium voor Moleculaire Biologie on August 5, 2002 and the accession number is LMBP 4574.\n(§3) Recombinant virus was produced by co-transfection by electroporation of the SmaI-linearized IN-deletion construct and the integrase amplicon into MT4 cells or MT4 cells equipped with an LTR driven reporter gene construct. Production of recombinant virus was evaluated by scoring the cytopathogenic effect (CPE) that is induced by HIV-infection of MT4 cells or by the LTR-driven reporter signal induced by HIV infection in MT4 reporter cells."}, "WT III B": {"tested_on": "WT III B", "assay": "microbe, parasite or virus in culture", "assay_type": "cell-based, HIV-1", "conditions": "for fold change: fold change in EC50", "experimental": "as §1, §2, §3"}, "[1]": {"conditions": "Human immunodeficiency virus 1, AVE 1, NL 4-3, primer set 3"}, "[2]": {"conditions": "Human immunodeficiency virus 1, NL43, AVE 4, NL4-3, primer set 4"}, "[3]": {"conditions": "Human immunodeficiency virus 1, AVE 3, WT III B, primer set 3"}, "[4]": {"conditions": "Human immunodeficiency virus 1, AVE 5, WT III B, primer set 4"}},
  "note": "Where two headings read alike, the source gives them in different places.",
  "data": [
    {"compound": "c1cc(CN2CCCNCCNCCCNCC2)ccc1CN1CCCNCCNCCCNCC1", "note": "[AMD3100]", "values": [
      {"measurement": "fold change", "setting": "NL 4-3; AVE 1, NL 4-3, primer set 3", "value": "0,9"},
      {"measurement": "fold change", "setting": "NL 4-3; AVE 4, NL4-3, primer set 4", "value": "1,1"},
      {"measurement": "EC50", "setting": "NL 4-3; [1]", "value": 50.6, "unit": "nM"},
      {"measurement": "EC50", "setting": "NL 4-3; [2]", "value": 63, "unit": "nM"},
      {"measurement": "fold change", "setting": "WT III B; AVE 3, WT III B, primer set 3", "value": "0,8"},
      {"measurement": "fold change", "setting": "WT III B; AVE 5, WT III B, primer set 4", "value": "0,8"},
      {"measurement": "EC50", "setting": "WT III B; [3]", "value": 44.2, "unit": "nM"},
      {"measurement": "EC50", "setting": "WT III B; [4]", "value": 41.7, "unit": "nM"}
    ]},
    {"compound": "CC(C)CN(C[C@@H](O)[C@H](Cc1ccccc1)NC(=O)O[C@H]1CCOC1)S(=O)(=O)c1ccc(N)cc1", "note": "[APV, Amprenavir]", "values": [
      {"measurement": "fold change", "setting": "NL 4-3; AVE 1, NL 4-3, primer set 3", "value": "0,6"},
      {"measurement": "fold change", "setting": "NL 4-3; AVE 4, NL4-3, primer set 4", "value": "1,3"},
      {"measurement": "EC50", "setting": "NL 4-3; [1]", "value": 49.6, "unit": "nM"},
      {"measurement": "EC50", "setting": "NL 4-3; [2]", "value": 113, "unit": "nM"},
      {"measurement": "fold change", "setting": "WT III B; AVE 3, WT III B, primer set 3", "value": "0,5"},
      {"measurement": "fold change", "setting": "WT III B; AVE 5, WT III B, primer set 4", "value": "0,7"},
      {"measurement": "EC50", "setting": "WT III B; [3]", "value": 46, "unit": "nM"},
      {"measurement": "EC50", "setting": "WT III B; [4]", "value": 60.6, "unit": "nM"}
    ]},
    {"compound": "O=C(O)C1=CC(=C(c2ccc(O)c(C(=O)O)c2)c2ccc(O)c(C(=O)O)c2)C=CC1=O", "note": "[ATA]", "values": [
      {"measurement": "fold change", "setting": "NL 4-3; AVE 1, NL 4-3, primer set 3", "value": "0,9"},
      {"measurement": "EC50", "setting": "NL 4-3; AVE 1, NL 4-3, primer set 3, read-out: EC 50", "value": 1960, "unit": "nM"},
      {"measurement": "fold change", "setting": "NL 4-3; AVE 4, NL4-3, primer set 4", "value": "1,2"},
      {"measurement": "EC50", "setting": "NL 4-3; AVE 4, NL4-3, primer set 4, read-out: EC 50", "value": 2510, "unit": "nM"},
      {"measurement": "fold change", "setting": "WT III B; AVE 3, WT III B, primer set 3", "value": "0,4"},
      {"measurement": "EC50", "setting": "WT III B; AVE 3, WT III B, primer set 3, read-out: EC 50", "value": 730, "unit": "nM"},
      {"measurement": "fold change", "setting": "WT III B; AVE 5, WT III B, primer set 4", "value": "0,4"},
      {"measurement": "EC50", "setting": "WT III B; AVE 5, WT III B, primer set 4, read-out: EC 50", "value": 861, "unit": "nM"}
    ]},
    {"compound": "Cc1cn([C@H]2C[C@H](N=[N+]=[N-])[C@@H](CO)O2)c(=O)[nH]c1=O", "note": "[AZT, Zidovudine]", "values": [
      {"measurement": "fold change", "setting": "NL 4-3; AVE 1, NL 4-3, primer set 3", "value": "0,9"},
      {"measurement": "fold change", "setting": "NL 4-3; AVE 4, NL4-3, primer set 4", "value": "1,1"},
      {"measurement": "EC50", "setting": "NL 4-3; [1]", "value": 143, "unit": "nM"},
      {"measurement": "EC50", "setting": "NL 4-3; [2]", "value": 182, "unit": "nM"},
      {"measurement": "fold change", "setting": "WT III B; AVE 5, WT III B, primer set 4", "value": "0,9"},
      {"measurement": "EC50", "setting": "WT III B; [4]", "value": 144, "unit": "nM"}
    ]},
    {"compound": "Cc1cc(C#N)cc(C)c1Oc1nc(Nc2ccc(C#N)cc2)nc(N)c1Br", "note": "[Compound 1, 4-[[6-amino-5-bromo-2-[(4-cyanophenyl)amino]-4-pyrimidinyl]oxy]-3,5-dimethyl-benzonitrile]", "values": [
      {"measurement": "EC50", "setting": "NL 4-3; AVE 1, NL 4-3, primer set 3", "value": 1, "unit": "nM"},
      {"measurement": "fold change", "setting": "NL 4-3; AVE 1, NL 4-3, primer set 3", "value": "1,0"},
      {"measurement": "fold change", "setting": "NL 4-3; AVE 4, NL4-3, primer set 4", "value": "2,3"},
      {"measurement": "EC50", "setting": "NL 4-3; [2]", "value": 2.3, "unit": "nM"},
      {"measurement": "EC50", "setting": "WT III B; AVE 3, WT III B, primer set 3", "value": 0.9, "unit": "nM"},
      {"measurement": "fold change", "setting": "WT III B; AVE 3, WT III B, primer set 3", "value": "0,9"},
      {"measurement": "EC50", "setting": "WT III B; AVE 5, WT III B, primer set 4", "value": 1.2, "unit": "nM"},
      {"measurement": "fold change", "setting": "WT III B; AVE 5, WT III B, primer set 4", "value": "1,2"}
    ]},
    {"compound": "Cc1cc(C#N)cc(C)c1Oc1nc(Nc2ccc(C#N)cc2)nc(N)c1Br", "note": "[Compound 2, 4-[[6-amino-5-bromo-2-[(4-cyanophenyl)amino]-4-pyrimidinyl]oxy]-3,5-dimethyl-Benzonitrile]", "values": [
      {"measurement": "EC50", "setting": "NL 4-3; AVE 1, NL 4-3, primer set 3", "value": 2.6, "unit": "nM"},
      {"measurement": "fold change", "setting": "NL 4-3; AVE 1, NL 4-3, primer set 3", "value": "0,8"},
      {"measurement": "EC50", "setting": "NL 4-3; AVE 4, NL4-3, primer set 4", "value": 2.8, "unit": "nM"},
      {"measurement": "fold change", "setting": "NL 4-3; AVE 4, NL4-3, primer set 4", "value": "0,9"},
      {"measurement": "EC50", "setting": "WT III B; AVE 3, WT III B, primer set 3", "value": 2.8, "unit": "nM"},
      {"measurement": "fold change", "setting": "WT III B; AVE 3, WT III B, primer set 3", "value": "0,9"},
      {"measurement": "EC50", "setting": "WT III B; AVE 5, WT III B, primer set 4", "value": 2.9, "unit": "nM"},
      {"measurement": "fold change", "setting": "WT III B; AVE 5, WT III B, primer set 4", "value": "0,9"}
    ]}
  ]
}
